According to ChEMBL document CHEMBL3885861, “Open TG-GATES”:

Species on record: Rattus norvegicus
Assay: Open TG-GATES - Regimen: Single
Type: toxicity, organism-based, Sprague-Dawley
Design: regimen Single, gender Male, age 6 weeks
Settings: in vivo, po, 0 mg/kg, route gavage, dose level Control; for APTT / Bas / Eos / Fbg / Hb / Ht / Lym / MCH / MCHC / MCV / Mono / Neu / PT / RBC / Ret / WBC / Plat: tissue Blood; for KIDNEY_L / KIDNEY_R / KIDNEY_TOTAL: tissue Kidney; for LIVER: tissue Liver; for ALP / ALT / AST / BUN / CRE / Ca / DBIL / GLC / IP / K / LDH / Na / PL / RALB / TBIL / TC / TG / TP / gamma-GTP: tissue Plasma

SMILES: CSc1ccc2c(c1)N(CCC1CCCCN1C)c1ccccc1S2 (configuration not stated) [THIORIDAZINE]
- TERMINAL_BW (3 h): 216.6 g
- APTT (3 h): 16 s
- Bas (3 h): 0%
- Eos (3 h): 0.6%
- Fbg (3 h): 206.6 mg/dL
- Hb (3 h): 12.9 g/dL
- Ht (3 h): 38.9%
- Lym (3 h): 82.2%
- MCH (3 h): 21.8 pg
- MCHC (3 h): 33.2%
- MCV (3 h): 65.7 fL
- Mono (3 h): 7.4%
- Neu (3 h): 10%
- PT (3 h): 12.1 s
- RBC (3 h): 592 x10_4/ul
- Ret (3 h): 8.6%
- WBC (3 h): 109.6 x10_2/uL
- KIDNEY_L (3 h): 1 g
- KIDNEY_R (3 h): 1 g
- KIDNEY_TOTAL (3 h): 2 g
- LIVER (3 h): 10.6 g
- ALP (3 h): 789.2 IU/L
- ALT (3 h): 37.2 IU/L
- AST (3 h): 71 IU/L
- BUN (3 h): 12.4 mg/dL
- CRE (3 h): 0.5 mg/dL
- Ca (3 h): 11.4 mg/dL
- DBIL (3 h): 0.006 mg/dL
- GLC (3 h): 197.6 mg/dL
- IP (3 h): 10.1 mg/dL
- K (3 h): 5 meq/L
- LDH (3 h): 94.4 IU/L
- Na (3 h): 137.4 meq/L
- PL (3 h): 136.2 mg/dL
- RALB (3 h): 3.8 g/dL
- TBIL (3 h): 0.3 mg/dL
- TC (3 h): 72.2 mg/dL
- TG (3 h): 93.4 mg/dL
- TP (3 h): 5.5 g/dL
- gamma-GTP (3 h): 0.8 IU/L
- TERMINAL_BW (6 h): 212.3 g
- APTT (6 h): 16.3 s
- Bas (6 h): 0%
- Eos (6 h): 1%
- Fbg (6 h): 216.8 mg/dL
- Hb (6 h): 13.7 g/dL
- Ht (6 h): 40.9%
- Lym (6 h): 74%
- MCH (6 h): 21.5 pg
- MCHC (6 h): 33.3%
- MCV (6 h): 64.4 fL
- Mono (6 h): 8.2%
- Neu (6 h): 17.2%
- PT (6 h): 12.1 s
- Plat (6 h): 98.4 x10_4/uL
- RBC (6 h): 635.6 x10_4/ul
- Ret (6 h): 7.7%
- WBC (6 h): 117.4 x10_2/uL
- KIDNEY_L (6 h): 0.9 g
- KIDNEY_R (6 h): 1 g
- KIDNEY_TOTAL (6 h): 1.9 g
- LIVER (6 h): 9.5 g
- ALP (6 h): 834 IU/L
- ALT (6 h): 28 IU/L
- AST (6 h): 60.4 IU/L
- BUN (6 h): 12.4 mg/dL
- CRE (6 h): 0.5 mg/dL
- Ca (6 h): 10.9 mg/dL
- DBIL (6 h): 0.016 mg/dL
- GLC (6 h): 189 mg/dL
- IP (6 h): 10.1 mg/dL
- K (6 h): 5 meq/L
- LDH (6 h): 100.4 IU/L
- Na (6 h): 137.4 meq/L
- PL (6 h): 147 mg/dL
- RALB (6 h): 3.8 g/dL
- TBIL (6 h): 0.4 mg/dL
- TC (6 h): 80.2 mg/dL
- TG (6 h): 84.4 mg/dL
- TP (6 h): 5.5 g/dL
- gamma-GTP (6 h): 2 IU/L
- TERMINAL_BW (9 h): 210.2 g
- APTT (9 h): 16.6 s
- Bas (9 h): 0%
- Eos (9 h): 1.2%
- Fbg (9 h): 221.4 mg/dL
- Hb (9 h): 13.4 g/dL
- Ht (9 h): 40.6%
- Lym (9 h): 73.2%
- MCH (9 h): 21.6 pg
- MCHC (9 h): 33.1%
- MCV (9 h): 65.4 fL
- Mono (9 h): 8.4%
- Neu (9 h): 17.2%
- PT (9 h): 12.2 s
- Plat (9 h): 111.7 x10_4/uL
- RBC (9 h): 620.6 x10_4/ul
- Ret (9 h): 7.6%
- WBC (9 h): 117.1 x10_2/uL
- KIDNEY_L (9 h): 0.9 g
- KIDNEY_R (9 h): 1 g
- KIDNEY_TOTAL (9 h): 1.9 g
- LIVER (9 h): 8.7 g
- ALP (9 h): 724 IU/L
- ALT (9 h): 30.6 IU/L
- AST (9 h): 67.4 IU/L
- BUN (9 h): 12.2 mg/dL
- CRE (9 h): 0.5 mg/dL
- Ca (9 h): 11.1 mg/dL
- DBIL (9 h): 0.034 mg/dL
- GLC (9 h): 197.6 mg/dL
- IP (9 h): 10.7 mg/dL
- K (9 h): 4.9 meq/L
- LDH (9 h): 63 IU/L
- Na (9 h): 139.6 meq/L
- PL (9 h): 147.4 mg/dL
- RALB (9 h): 4 g/dL
- TBIL (9 h): 0.3 mg/dL
- TC (9 h): 87.6 mg/dL
- TG (9 h): 35.8 mg/dL
- TP (9 h): 5.6 g/dL
- gamma-GTP (9 h): 1.2 IU/L
- TERMINAL_BW (24 h): 232.2 g
- APTT (24 h): 15.8 s
- Bas (24 h): 0%
- Eos (24 h): 0.8%
- Fbg (24 h): 225 mg/dL
- Hb (24 h): 13.2 g/dL
- Ht (24 h): 38.9%
- Lym (24 h): 73%
- MCH (24 h): 22 pg
- MCHC (24 h): 33.9%
- MCV (24 h): 64.9 fL
- Mono (24 h): 9.4%
- Neu (24 h): 16.8%
- PT (24 h): 12.2 s
- Plat (24 h): 107.1 x10_4/uL
- RBC (24 h): 600.2 x10_4/ul
- Ret (24 h): 8.3%
- WBC (24 h): 127.4 x10_2/uL
- KIDNEY_L (24 h): 1 g
- KIDNEY_R (24 h): 1 g
- KIDNEY_TOTAL (24 h): 2 g
- LIVER (24 h): 11.4 g
- ALP (24 h): 895 IU/L
- ALT (24 h): 36 IU/L
- AST (24 h): 65.2 IU/L
- BUN (24 h): 18.4 mg/dL
- CRE (24 h): 0.5 mg/dL
- Ca (24 h): 11 mg/dL
- DBIL (24 h): 0.016 mg/dL
- GLC (24 h): 193.4 mg/dL
- IP (24 h): 8.1 mg/dL
- K (24 h): 5.1 meq/L
- LDH (24 h): 73 IU/L
- Na (24 h): 138.4 meq/L
- PL (24 h): 150.8 mg/dL
- RALB (24 h): 3.9 g/dL
- TBIL (24 h): 0.3 mg/dL
- TC (24 h): 81.6 mg/dL
- TG (24 h): 87.8 mg/dL
- TP (24 h): 5.7 g/dL
